Columns and labels:
p38 = p38 phosphorylation/activation in retina after axotomy; type: in vivo, Long-Evans rats; details: MK801 intravitreal after axotomy
Experimental: (§1) One day after axotomy, activated (di-phosphorylated) p38 was visualized by immunocytochemistry in the RGC layer, but not in control retinas. By Western blotting, phosphorylated p38 was first detected 12 hours after axotomy and reached a maximum at 24 hours before decreasing. SB 203580 was administered intravitreally at the time of axotomy, and repeated at 5 days and 10 days.
(§2) Drug application. Intravitreal injections were carried out using a 33-gauge needle attached to a 25 μl syringe following pupil dilation with 1% atropine sulfate. The tip of the needle was inserted through the dorsal limbus of the eye under stereomicroscopic visualization. Injections were completed over a period of 1 min. Intravitreal injections of SB 203580 (Calbiochem, San Diego, Calif.), MK801 (Research Biochemicals International, Natick, Mass.) or control solutions (as an equal volume of saline diluent) were performed on operated eyes immediately after axotomy, and repeated 5 and 10 days post axotomy.
Immunohistochemistry. After enucleation, the eyes were immersed in fixative composed of 4% paraformaldehyde in phosphate-buffered saline (PBS; pH 7.4) at 4° C. Ten minutes later, the eyes were hemisected in the fixative, and the anterior segment, lens and vitreous body were discarded. The remaining posterior eyecup was kept in fresh fixative solution overnight at 4° C. The eyecup was then embedded in paraffin. […]

[1] = tested on: retinal ganglion cells (RGCs); assay: Optic nerve axotomy model of glaucoma: RGC survival in vivo; parameters: species or system Long-Evans rats; details: MK801 intravitreal; 14 days post axotomy
Description: As a model for studying treatment of glaucoma, damaged (axotomized) retinal ganglion cells were employed. Specifically, transection of the optic nerve close to the cell body causes apoptotic death of retinal ganglion cells (RGCs), similar to that found in glaucoma. […] Three days later, the left optic nerve was intraorbitally transected 1 mm from the globe. One day after axotomy, no remarkable change in the fluorescence pattern of RGCs was seen compared to that of controls. RGC density, as assessed by the number of fluorescently-labeled cells, began to decline between 4 and 7 days post axotomy. By 14 days, a substantial number of fluorescently-labeled RGCs appeared to have been lost. Morphologically, in whole-mounted retinas stained with cresyl violet, ganglion cell layer (GCL) of unlesioned control retinas manifest no apoptotic profiles or pyknotic nuclei. In contrast, by 10 days after axotomy, multiple degenerating cell bodies with pyknotic nuclei were apparent in the GCL, and the cell density in this layer appeared to be greatly diminished. When hydroxystilbamidine fluorescence in the GCL was quantified, in unlesioned control retinas the mean RGC density was 2533±104 cells/mm^2 (mean±SD). Within 14 days of axotomy, the mean RGC density decreased to 348±107 (14% of control).
as §1
Retrograde labeling of retinal ganglion cells. Adult male Long-Evans rats weighing 200 to 250 g were obtained from a local breeder and, for all experimental manipulations, were anesthetized with 1-2% isoflurane and 70% N2O. RGCs were retrogradely labeled with hydroxystilbamidine (Molecular Probes, Eugene, Oreg., also known as Fluoro-Gold™) to allow accurate counting of cell bodies as described in Vorwerk et al., Invest. Ophthalmol. Vis. Sci. 40:813-816. Rats were anesthetized and placed in a small stereotactic instrument. The skull was exposed and kept dry. The bregma was identified and marked, and a small window was drilled above the right hemisphere, leaving the dura intact.
Axotomy. Optic nerve axotomy was performed on the left eye 4 days after retrograde labeling. After incision of the dorsolateral conjunctiva, the lateral extraocular muscle was transected, and the optic nerve was exposed under a stereoscopic microscope. The optic nerve was then transected at a distance of about 1 mm from the eye bulb. During the operation, care was taken to avoid damage to the retinal blood supply.
as §2
Quantification of axotomized RGC survival and histology. […]

[2] = tested on: cytokine-activated astrocytes; assay: NO release (nitrite, Griess reaction) by cytokine-activated astrocytes; type: cell-based, Sprague-Dawley rats; details: in the absence of macrophages/microglia
Experimental: (§3) The model used in the assays described below, i.e., rat cerebrocortical cultures, was prepared from embryos of Sprague-Dawley rats at day 15 to 17 of gestation. See Lei et al., Neuron 8:1087-1099 (1992) and Lipton et al., Nature 364:626-632 (1993). Cultures were used for experiments after 17 to 24 days in culture. These cultures contain neurons, astrocytes, and macrophages/microglia, as determined with specific immunolabeling. Prior to some experiments, macrophages/microglia or neurons were depleted from the cultures by exposure to 7.5 mM L-leucine methyl ester or 2 mM N-methyl-D-aspartate (NMDA), respectively. See Lipton, NeuroReport 3:913-915 (1992). Absence of macrophages/microglia or neurons in these cultures was confirmed immunocytochemically, using antibodies to ED-1 and microtubule-associated protein-2 (MAP-2), respectively. In some experiments, the Griess reaction was used to measure nitrite levels in the culture medium as an index of nitric oxide (NO) release. See Chao et al., Glia 16:276-284 (1996).

[3] = tested on: neurons in rat cerebrocortical cultures (SDF-1-induced apoptosis); assay: SDF-1-induced neuronal apoptosis in rat cerebrocortical cultures; type: cell-based, Sprague-Dawley rats; details: TKP
Experimental: as §3, with “(1996). […]” for “(1996).”
(§4) Neuronal apoptosis in the above-described assays was assessed using a variety of techniques, e.g., staining of permeabilized cells with propidium iodide to determine apoptotic morphology, and a neuron-specific antibody (against NeuN or MAP-2) to identify cell type. […]

[4] = tested on: neurons in rat cerebrocortical cultures (gp120-induced apoptosis); assay: gp120-induced neuronal apoptosis in rat cerebrocortical cultures; type: cell-based, Sprague-Dawley rats; details: for effect on neuronal apoptosis induced by gp120: gp120 200 pM, 24 h
Experimental: as §3, with “These cultures contain neurons, astrocytes, and macrophages/microglia, as determined with specific immunolabeling.” left out, “Absence of macrophages/microglia or neurons in these cultures was confirmed immunocytochemically, using antibodies to ED-1 and microtubule-associated protein-2 (MAP-2), respectively.” left out
Cultures were transferred into Earle's Balanced Salt Solution (EBSS) and incubated for 24 hours with gp120, chemokines, Tuftsin fragment 1-3, i.e., Thr-Lys-Pro (TKP), p38 MAPK inhibitor SB 203580 (i.e., 4-(4-fluorophenyl)-2-(4-methylsulfinylphenyl)-5-(4-pyridyl)imidazole, Calbiochem, San Diego, Calif.), or combinations thereof. Chemokines or TKP were applied for 5 minutes and SB 203580 for 15 minutes prior to gp120 exposure.
TKP was obtained from Sigma (St. Louis, Mo.). Recombinant human MIP-1β, SDF-1α, SDF-1β, and recombinant rat RANTES were purchased from R&D systems ([…].) and Endogen (Woburn, Mass.), respectively. HIV-1 envelope glycoprotein gp120 from the strain SF2 was obtained from the NIH AIDS Research and Reference Reagent Program, Division of AIDS, NIAID, NIH. See Scandella et al., AIDS Res. Hum. Retroviruses 9:1233-1244 (1993). Additional gp120s from HIV-1 strains IIIB and RF2 were obtained from Genetech and the National Cancer Institute, respectively. TNFα, IFNγ, and IL-1β were from Genzyme (Cambridge, Mass.), Gibco BRL (Grand Island, N.Y.) and Endogen (Woburn, Mass.), respectively.
Neuronal apoptosis in the above-described assays was assessed using a variety of techniques, e.g., staining of permeabilized cells with propidium iodide to determine apoptotic morphology, and a neuron-specific antibody (against NeuN or MAP-2) to identify cell type. In brief, cells were fixed for 5 minutes with ice-cold acetone at −20° C. and, after three washes in PBS, for 4 minutes with 2% (w/v) paraformaldehyde solution in PBS at room temperature (RT). Acetone-paraformaldehyde-fixed cells were permeabilized using 0.2% Tween 20 in PBS (PBST), and non-specific binding sites were blocked by incubation for 1 hour with a 10% solution of heat-inactivated goat serum in PBST. To specifically stain neurons, cells were then incubated for 4 hours at RT or overnight at 4° C. with 1:500 dilutions of anti-MAP-2 (Sigma) or anti-NeuN monoclonal antibody (mAb; Chemicon, Temecula, Calif.). Their respective non-specific isotype antibodies served as controls. After three washes, the cells were incubated in a secondary polyclonal antibody (pAb) conjugated either to fluorescein isothiocyanate (FITC) or to horseradish peroxidase (HRP). In the case of HRP-coupled pAb, diaminobenzidine (DAB) served as the color substrate developed by incubation in a mixture of 1 mg/ml DAB and 0.8% H2O2 at a ratio of 3:1. Cellular nuclei were subsequently stained with […] propidium iodide for 5 minutes in the dark, and then coverslips were mounted on glass slides. Experiments were replicated at least 3 times with triplicate values in each experiment. Statistical significance was judged by an analysis of variance (ANOVA) followed by a Scheffé or Bonferroni/Dunn post hoc test.

[5] = tested on: neurons (NMDA-induced apoptosis); assay: NMDA-induced neuronal apoptosis in cerebrocortical cultures; type: cell-based, Sprague-Dawley rats
Experimental: as §3, §4

[6] = tested on: neurons in rat cerebrocortical cultures; assay: Neuronal apoptosis assay, chemokine alone versus control; type: cell-based, Sprague-Dawley rats; details: α-chemokine 20-50 nM, 24 h
Experimental: as §3, with “(1996). […]” for “(1996).”
as §4

[7] = β-chemokine at 20 nM applied 5 min before gp120

## C[C@]12N[C@H](Cc3ccccc31)c1ccccc12 [MK801]
p38
  p38 phosphorylation/activation: inhibited p38 phosphorylation/activation in a dose-dependent manner
[1]
  number of surviving RGCs: increased the number of surviving RGCs

## Thr-Lys-Pro [TKP]
[2]
  effect on NO release by cytokine-activated astrocytes: did not inhibit NO release
[3]
  effect on SDF-1β-induced neuronal apoptosis: not abrogated
[4]; TKP 50 μM, applied 5 min before gp120
  effect on gp120-induced neuronal apoptosis: protected neurons from gp120-induced apoptosis
[5]
  effect on NMDA-induced neuronal apoptosis: did not interfere

## COc1cccc(-c2cc(=O)c3ccccc3o2)c1N [PD 98059, 2′-amino-3′-methoxyflavone]
[4]; PD 98059 2 μM
  effect on gp120SF2-induced neuronal apoptosis: only SB 203580 substantially attenuated

## SDF-1α
[4]; α-chemokine at 20-50 nM
  effect on neuronal apoptosis induced by gp120: did not reduce neuronal damage or apoptosis
[6]
  increase in neuronal apoptosis compared to control: approximately 2 fold

## RANTES
[4]; [7]
  effect on neuronal apoptosis induced by gp120: abrogated

## S=C(S)N1CCCC1 [PDTC, pyrrolidine dithiocarbamate]
[4]; PDTC 5 μM
  effect on gp120SF2-induced neuronal apoptosis: only SB 203580 substantially attenuated

B1: MIP-1β: recombinant human MIP-1β, β-chemokine (protein, UniProt P13236 24-92, looked up)
C-C motif chemokine 4: APMGSDPPTACCFSYTARKLPRNFVVDYYETSSLCSQPAVVFQTKRSKQVCADPSESWVQEYVYDLELN
[4]; [7]
  effect on neuronal apoptosis induced by gp120: abrogated

From patent US20030078274A1, “Method of reducing neuronal injury or apoptosis” (priority 1999, published 2003)
